Reference: US20250249013A1, “COMBINATION METABOLIC-EPIGENETIC TREATMENT FOR EARLY LUNG CANCER” (THE REGENTS OF THE UNIVERSITY OF CALIFORNIA, priority 2022, published 2025)

How the values were obtained:
LUAD = details: genetically engineered murine models and patient-derived xenografts; cited from earlier work
A549 cells [1] = experiment: αKG rescue in low glucose, western blot and RT-PCR; format: cell-based, human
Description: (§1) Human lung cancer A549 (CCL-185) and NCI-H358 (CRL-5807) cells lines were purchased from American Type Culture Collection (ATCC, Manassas, VA). Cells were maintained in culture according to manufacturer protocol using Roswell Park Memorial Institute (RPMI) 1640 medium (Corning, Cat. #10-040CV) supplemented with 10% FBS and 5% 1× Pen-Strep and kept in 37° C. and 5% of CO2. Murine 2953A cell line was established in our lab from a KP lung tumor by tissue dissociation. This cell line was maintained in culture in Dulbecco's modified Eagle Medium (DMEM) medium (Corning, Cat. #10-017CV) with 5% FBS and 5% 1× Pen-Strep.
(§2) All experiments in cell lines were performed in biological triplicate. Cells were seeded at same confluence and grown for 5 days (and for some experiments overnight or up to 9 days or 30 days, as indicated in the figures and text) in different concentration of glucose: high (20 mM), low (1 mM) and for some experiments medium (5 mM), as indicated. We used mediums with glutamine and without glucose: RPMI (Corning Cat. #10-043CV) for A549 and NCI-H358 cells, DMEM (ThermoScientific Cat. #11566025) for 2953A cells, supplemented with 10% FBS, 5% of 1× Pen-Strep and complemented with D-Glucose to the desired final concentration, as indicated in the figures.
(§3) All αKG rescue experiments were conducted using 10 mM alpha-ketoglutarate (α-KG; Sigma) and α-Mannitol (Sigma) as osmotic control.
(§4) For total protein extraction, cells were harvested, washed twice with ice-cold PBS-EDTA (0.5 mm EDTA), lysed using RIPA buffer (50 mM Tris-HCl pH 7.6, 150 mM NaCl, 0.1% SDS, 0.5% C24H39NaO4, 1% NP-40, 2 mm EDTA, 50 mm NaF) for 15 min on ice and centrifuged at 13,000 rpm for 30 min at +4° C. The resulting protein extracts were quantified using BCA protein assay followed by analysis by SDS-PAGE and Western blotting.
(§5) Histones was extracted from A549, NCI-H358 and 2953A cell lines using the Histone extraction kit (Abcam) according to manufacturer instructions.
(§6) SDS-PAGE and Western blotting analyses were performed using standard protocols. For antibodies information, see Reagents and Tools Table. Western blot images were detected by iBright Imaging Systems (Thermo Fisher Scientific). The protein detected was normalized to Actin or H3 total antibodies, this last in case of histonic extract. Each immunodetection derived from the same membrane was performed with the same exposure times according to the manufacture's antibody guidelines and was cropped only for presentation purposes; this is indicated by a dotted line.
(§7) Total RNA was extracted from A549, NCI-H358 and 2953A by using TRI Reagent Solution (Applied Biosystem), according to manufacturer instruction. RNA concertation was assayed by Nanodrop 3000 spectrophotometer (Thermo Fisher Scientific). Then, 1 μg of RNA was treated with DNase I (Thermo Fisher Scientific) and used for cDNA preparation.
(§8) cDNA was prepared using 1 μg of RNA with SuperScript IV Reverse Transcriptase (Invitrogen). SYBR green-based RT-PCR kit (Biorad) was performed using human and mouse primers (See Table EV11). mRNA levels were normalized to GAPDH (ΔCt=Ctgene of interest-Ct GAPDH) and presented as relative mRNA expression (ΔΔCt=2-(ΔCtsample-ΔCtcontrol)). All primers were designed by NCBI Primer-BLAST and purchased from Integrated DNA Technologies.

NCI-H358 cells [2] = experiment: αKG rescue in low glucose, western blot and RT-PCR; format: cell-based, human
Description: as §1, §2, §3, §4, §5, §6, §7, §8

2953A cells = experiment: αKG rescue in low glucose, western blot and RT-PCR; format: cell-based, mouse; details: low glucose 5 days
Description: as §1, §2, §3, §4, §5, §6, §7, §8

A549 cells [3] = experiment: RNA-seq, low glucose with dm-αKG; format: cell-based, human; details: A549, low glucose + dm-αKG 10 mM, five days
Description: (§9) A549 and NCI-H358 cell lines were incubated in triplicate with high glucose (20 mM), low glucose (1 mM), and low glucose+dm-αKG (10 mM). Total RNA was extracted as previously described. RNA sequencing was performed by Med Genome. Sample quality control was performed using Quibit fluorometric (Agilent) and Tapestation bioanalyzer (Agilent). For library preparation TruSeq Stranded Total RNA kit (Illumina) was used and libraries were sequenced on NovaSeq platform (Illumina). The FASTQ data generated was used for gene expression analysis, performed as described in Nassa et al (Nassa et al, 2019).
(§10) Briefly, the raw sequence files generated (.fastq files) underwent quality control analysis using FASTQC (http://www.bioinformatics.babraham.ac.uk/projects/fastqc/) and adapter sequences were removed using Trimmomatic version 0.38 (Bolger et al, 2014) Filtered reads were aligned on human genome (assembly hg38) considering genes present in GenCode Release 35 (GRCh38.p12) using STAR v2.7.6a (Dobin et al, 2013) with standard parameters. Quantification of expressed genes was performed using featureCounts (Liao et al, 2014) and differentially expressed genes were identified using DESeq2 (Love et al, 2014). A given RNA was considered expressed when detected by at least ≥10 raw reads.
(§11) Differential expression was reported as Ifold-changel (FC)[…] along with associated adjusted pvalues≤0.05 computed according to Benjamini-Hochberg. Gene Set Enrichment Analysis (GSEA) was performed to examine pathway enrichment for the differential expressed genes with the Molecular Signature Database “Hallmarks” gene set collection (Liberzon et al, 2015). Only those with an FDR […] have been selected.

NCI-H358 cells [4] = experiment: RNA-seq, low glucose with dm-αKG; format: cell-based, human; details: NCI-H358, low glucose + dm-αKG 10 mM, five days
Description: as §9, §10, §11

A549 and NCI-H358 cells = experiment: RNA-seq, genes regulated consistently in both cell lines; format: cell-based, human; details: significantly regulated in at least 3 of the four conditions
Description: as §9
as §10, with “reads. […]” for “reads.”

A549 cells [5] = experiment: EZH2 inhibition with GSK126 in low glucose, western blot; format: cell-based, human; details: GSK126 0.25 μM
Description: as §1, §2, §4, §5, §6

NCI-H358 cells [6] = experiment: as above; format: cell-based, human; details: GSK126 0.25 μM
Description: as §1, §2, §4, §5, §6

[7] = A549, low glucose 5 days, dm-αKG
[8] = A549, low glucose 5 days, dm-αKG 10 mM
[9] = NCI-H358, low glucose 5 days, dm-αKG
[10] = NCI-H358, low glucose 5 days, dm-αKG 10 mM
[11] = A549, low glucose (1 mM) 5 days

## Cc1ccc([C@@H]2O[C@H](CO)[C@@H](O)[C@H](O)[C@H]2O)cc1Cc1ccc(-c2ccc(F)cc2)s1 [canagliflozin]
LUAD
  development of LUAD: significantly delays
  survival: prolongs survival
  tumor growth: reduces tumor growth

## COC(=O)CCC(=O)C(=O)OC [dm-αKG, dimethyl-αKG]
A549 cells [1]; A549, cells growing in low glucose (so in the source), dm-αKG
  HIF1α and HIF2α protein, western blot, control condition: did not have any effect
A549 cells [1]; [7]
  H3K4 hyper-methylation, western blot on histone extracts: reverse
  H3K9 hyper-methylation, western blot on histone extracts: reverse
  H3K27 hyper-methylation, western blot on histone extracts: reverse
  H3K27 hypo-acetylation, western blot on histone extracts: reverse
  low glucose-induced increase of Slug, western blot: rescued
  low glucose-induced reduction in Snail, western blot: partially rescued
  low glucose-induced reduction in ZEB1, western blot: partially rescued
  low glucose-induced repression of PHD3 expression, RT-PCR: rescued
  low glucose-induced up-regulation of HIF1α mRNA, RT-PCR: rescued
  low glucose-induced up-regulation of HIF1α protein, western blot: reversed
  low glucose-induced up-regulation of HIF2α mRNA, RT-PCR: rescued
  low glucose-induced up-regulation of HIF2α protein, western blot: reversed
A549 cells [1]; [8]
  GLUT1 expression, qPCR: reduced
  low glucose-induced inhibition of FoxA2 mRNA, qPCR: rescued
  low glucose-induced reduction in FOXA2 protein, western blot: rescued
NCI-H358 cells [2]; NCI-H358, cells growing in low glucose (so in the source), dm-αKG
  HIF1α and HIF2α protein, western blot, control condition: did not have any effect
NCI-H358 cells [2]; [9]
  H3K4 hyper-methylation, western blot on histone extracts: reverse
  H3K9 hyper-methylation, western blot on histone extracts: reverse
  H3K27 hyper-methylation, western blot on histone extracts: reverse
  H3K27 hypo-acetylation, western blot on histone extracts: reverse
  low glucose-induced increase of Slug, western blot: rescued
  low glucose-induced repression of PHD3 expression, RT-PCR: rescued
  low glucose-induced up-regulation of HIF1α mRNA, RT-PCR: rescued
  low glucose-induced up-regulation of HIF1α protein, western blot: reversed
  low glucose-induced up-regulation of HIF2α mRNA, RT-PCR: rescued
  low glucose-induced up-regulation of HIF2α protein, western blot: reversed
NCI-H358 cells [2]; [10]
  GLUT1 expression, qPCR: reduced
  low glucose-induced inhibition of FoxA2 mRNA, qPCR: rescued
  low glucose-induced inhibition of TTF-1 mRNA, qPCR: rescued
  low glucose-induced reduction in FOXA2 protein, western blot: rescued
  low glucose-induced reduction in TTF1 protein, western blot: rescued
2953A cells; dm-αKG
  H3K4 hyper-methylation, western blot on histone extracts: reverse
  H3K9 hyper-methylation, western blot on histone extracts: reverse
  H3K27 hyper-methylation, western blot on histone extracts: reverse
  H3K27 hypo-acetylation, western blot on histone extracts: reverse
2953A cells; dm-αKG 10 mM
  GLUT1 expression, qPCR: reduced
  low glucose-induced inhibition of FoxA2 mRNA, qPCR: rescued
  low glucose-induced reduction in FOXA2 protein, western blot: rescued
A549 cells [3]; 2,024 genes down-regulated by low glucose
  number of low glucose down-regulated genes rescued by dm-αKG: 1,431 genes
A549 cells [3]; 2,394 genes up-regulated by low glucose
  number of low glucose up-regulated genes rescued by dm-αKG: 1,634 genes
NCI-H358 cells [4]; 942 genes down-regulated by low glucose
  number of low glucose down-regulated genes rescued by dm-αKG: 370 genes
NCI-H358 cells [4]; 1,335 genes up-regulated by low glucose
  number of low glucose up-regulated genes rescued by dm-αKG: 510 genes
A549 and NCI-H358 cells
  genes down-regulated by low glucose consistently in both cell lines and rescued by dm-αKG: 445 genes
  genes up-regulated by low glucose consistently in both cell lines and rescued by dm-αKG: 524 genes

## CC[C@H](C)n1cc(C)c2c(C(=O)NCc3c(C)cc(C)[nH]c3=O)cc(-c3ccc(N4CCNCC4)nc3)cc21 [GSK126]
A549 cells [5]; [11]
  expression of FoxA2, western blot: rescued
  tri-methylation of H3K27, western blot: rescued
A549 cells [5]; A549, low glucose
  EZH2 activity: inhibited
NCI-H358 cells [6]
  EZH2 activity: inhibited
  expression of FoxA2, western blot: rescued
  tri-methylation of H3K27, western blot: rescued
